The record followed here is patent EP1006108A1, “3-Hydroxy-2(1H)-pyridinone or 3-hydroxy-4(1H)-pyridinone derivatives useful as reactive oxygen species (ROS) scavengers” (Cerebrus Pharmaceuticals Limited, priority 1998, dated 2000).

Experiment [1] has as its system cerebellar granule cell (CGC) cultures. Briefly: Iodoacetate (IAA) induced cell death, MTT-reductase readout. It is filed as cell-based. Particulars: Cell Toxicity, 30-µM IAA for 30 min plus 10-µM MK-801, then test compound, 24 hour incubation. As to the method: After 6-8 days in culture, cerebellar granule cell (CGC) cultures in 96-well plates (250,000 cells per well) were prepared for hypoglycaemia. Iodoacetate (IAA) was made up in a balanced salt solution (BSS) (NaCI, 154.0-mM; KCl, 5.6-mM; MgCl2, 1.0-mM; CaCl2, 2.5-mM; N-[2-hydroxyethyl]piperazine-N'-[2-ethanesulfonic acid] (HEPES), 10.0-mM; D-glucose, 5.6-mM; pH 7.4) and any neuroprotective agents were made up in pre-warmed tissue culture media and allowed to equilibrate in a controlled environment (5 % CO2, 95 % air). The assay was initiated by aspiration of the maintenance media, which was replaced by either BSS (control) or 30-µM IAA in BSS, both solutions containing 10-µM of the NMDA receptor antagonist MK-801. The exposure to IAA was for 30 min only at 37 °C, after which time the BSS was aspirated and replaced with fresh, pre-equilibriated maintenance media containing various concentrations of test compound. All conditions were performed at least in duplicate in each 96 well plate. The final volume for each well was always 200 µL. Following a 24 hour incubation, visual inspection of the cells was followed by quantification of neuronal cell death by measuring 3-[4,5-dimethylthiazol-2-yl]-2,5-diphenyltetrazolium bromide (MTT)-reductase activity as described previously (Malcolm et al., J. Neurochem. 1996, 66, 2350-2360).

The test system of experiment [2] is lipid peroxidation in rat brain homogenates. Briefly: Lipid peroxidation assay (ascorbic acid induced, MDA/TBA readout). Particulars: concentration inhibiting lipid peroxidation by 50%; rat cortex preparation, 500-µM L-ascorbic acid, 37 °C for 30 min. It counts as biochemical. The protocol: Lipid peroxidation in rat brain homogenates is a general procedure used to measure the antioxidant capacity of molecules in a biological environment (Das N.P. and Ratty A.K., Biochem. Med. Metab. Biol. 1987, 37, 256-264).
Rat cortex was homogenised in 20 vols. of ice cold 0.32-M sucrose and centrifuged at 1,000 g for 10 min. The pellet was discarded whilst the resulting supernatant was centrifuged at 15,000 g for 20 min at 4 °C to yield p2 pellets. The pellet was re-suspended in ice-cold 50.0-mM phosphate buffer and centrifuged at 30,000 g for 20 min at 4 °C. The pellet was re-suspended in 30 vols, of 50.0-mM phosphate buffer and used immediately in the assay.
Assays contained 500-µM L-ascorbic acid to induce lipid peroxidation, plus various concentrations of test compound, with the tissue preparation in a total volume of 500 µL. This was incubated at 37 °C for 30 min. Lipid peroxidation was measured by adding to the reaction mixture, 300 µL 40 % (w/v) trichloroacetic acid, 150 µL 5.0-M HCl and 300 µL 2 % (w/v) 2-thiobarbituric acid (TBA). Samples were then heated at 90 °C in a water bath for 15 min, and centrifuged at 15,000 g for 10 min. The pink colour of the supernatant was assessed spectrophotometrically at a wavelength of 532 nm. The amount of malondialdehyde (MDA) in the samples was calculated using a standard curve prepared with malondialdehyde tetrabutylammonium salt (Das, N.P. and Ratty, A.K. Biochem. Med. Metab. Biol. 1987, 37, 256-264).
The IC50 values show the concentration of test compound required to inhibit the lipid peroxidation by 50%.

A further experiment deals with oxidation of DCFH to DCF. In words: Measurement of intracellular oxidative stress (DCFH-DA fluorescence). It counts as cell-based. Particulars: 0.5 h, concentration blocking oxidation of DCFH to DCF by 50%, 30.0-µM IAA, 30 minutes, read from Figure 1. The protocol:
IAA-stimulated fluorescence values are given as a function of concentration of the test compound.
Intracellular oxidative stress was measured using the oxidant-sensitive fluorescent dye 2',7'-dichlorodihydrofluorescein diacetate (DCFH-DA) (Molecular Probes). The non-fluorescent DCFH-DA readily crosses cell membranes whereupon it is trapped within the cytoplasm by deacetylation to the non-membrane permeable form dichlorodihydrofluorescein (DCFH). Upon oxidation, DCFH yields the highly fluorescent product dichlorofluorescein (DCF). Briefly, growth medium was aspirated from cultures and replaced with 200 µl BSS (plus 10.0-µM MK-801) or BSS (plus 10.0-µM MK-801) containing 30.0-µM IAA alone or in combination with various concentrations of antioxidants. After incubation at 37 °C for 30 minutes, cultures were aspirated once more and 10.0-µM DCFH-DA (200 µL) added to all wells. After a further 20 minute incubation at 37 °C, fluorescence was measured in a Cytofluor II fluorescent plate reader (λex=485nm; λem=530nm). Background fluorescence values from wells treated with 2 % Triton X-100 were subtracted from both basal and stimulated fluorescence values and the effects of test compounds expressed as a percent inhibition of the IAA-stimulated fluorescence increase over basal.
The EC50 value gives the effective concentration of test compound required to block the oxidation of DCFH to DCF by 50%. […]

Structures can show the parent of a compound that is named as a salt.

Regarding `Cc1c(O)c(=O)ccn1CCNCc1cc(C(C)(C)C)c(O)c(C(C)(C)C)c1` [Example 2, 1-[2-(3,5-Di-tert-butyl-4-hydroxybenzylamino)ethyl]-3-hydroxy-2-methyl-4(1H)-pyridinone dihydrochloride], in experiment [1], the EC50 (as a rule, the concentration that produces a half-maximal response) amounted to 3.3 µM. Further, the IC50 (as a rule, the concentration that inhibits the measured activity by half) in experiment [2] came to 0.2 µM.
As for `Cc1c(C)c2c(c(C)c1O)CCC(C)(CNC(=O)CCn1ccc(=O)c(O)c1C)O2` (stereo not drawn) [Example 5, 3-(1,4-Dihydro-3-hydroxy-2-methyl-4-oxo-1-pyridinyl)-N-(3,4-dihydro-6-hydroxy-2,5,7,8-tetramethyl-2H-benzopyran-2-yl)methylpropanamide], the EC50 in experiment [1] came to 2.6 µM. The molecule also had an IC50 in experiment [2] of 0.8 µM.
In the same order, the values of `Cc1c(C)c2c(c(C)c1O)CC(CC(=O)NCCn1ccc(=O)c(O)c1C)O2` (stereo not drawn) [Example 8, N-(2-(1,4-Dihydro-3-hydroxy-2-methyl-4-oxo-1-pyridinyl)ethyl)-2,3-dihydro-5-hydroxy-4,6,7-trimethylbenzofuran-2-acetamide] are 3.8 µM and 0.5 µM.
As for `Cc1c(C)c2c(c(C)c1O)CCC(C)(COCCn1ccc(=O)c(O)c1C)O2` (stereo not drawn) [Example 6], in experiment [1], the EC50 is roughly 3 µM. Besides, the half-maximal inhibitory concentration (IC50) in experiment [2] amounted to 0.2 µM.
Taken in the same sequence, the figures for “2-(1,4-Dihydro-3-hydroxy-2-methyl-4-oxo-1-pyridinyl)ethyl 3,4-dihydro-6-hydroxy-2,5,7,8-tetramethyl-2H-benzopyran-2-carboxylate [Example 3]” were 1.8 µM and 1.5 µM.
On to “N-(2-(1,4-Dihydro-3-hydroxy-2-methyl-4-oxo-1-pyridinyl)ethyl)-3,4-dihydro-6-hydroxy-2,5,7,8-tetramethyl-2H-benzopyran-2-carboxamide [Example 4]”, for which the EC50 in experiment [1] was determined as 1.8 µM. In experiment [2], this molecule had a 50% inhibitory concentration (IC50) of 1 µM.
Turning to `Cc1c(C)c2c(c(C)c1O)CC(CCOC(=O)CCn1ccc(=O)c(O)c1C)O2` (stereo not drawn) [Example 10, 2-(2,3-Dihydro-5-hydroxy-4,6,7-trimethylbenzofuran-2-yl)ethyl 3-(1,4-dihydro-3-hydroxy-2-methyl-4-oxo-1-pyridinyl)propanoate], the 50% effective concentration (EC50) in experiment [1] was roughly 5.3 µM; with oxidation of DCFH to DCF it was 0.8 µM. For the same molecule, the IC50 in experiment [2] was 0.2 µM.
Turning to `Cc1c(C)c2c(c(C)c1O)CCC(C)(CNCCCCn1ccc(=O)c(O)c1C)O2` (stereo not drawn) [Example 7, 1-[4-(3,4-Dihydro-6-hydroxy-2,5,7,8-tetramethyl-2H-benzopyran-2-yl)methylamino)butyl]-3-hydroxy-2-methyl-4(1H)-pyridinone dihydrochloride], the EC50 in experiment [1] was found to be 0.6 µM. The molecule also came in with a 50% inhibitory concentration (IC50) in experiment [2] of 0.1 µM.
In the same order, the values of `Cc1c(O)c(=O)ccn1CCC(=O)NCCCc1cc(C(C)(C)C)c(O)c(C(C)(C)C)c1` [Example 1, 3-(1,4-Dihydro-3-hydroxy-2-methyl-4-oxo-1-pyridinyl)-N-(3-(3,5-di-tert-butyl-4-hydroxyphenyl)propyl)propanamide] are 0.3 µM and 0.2 µM.
With `Cc1c(C)c2c(c(C)c1O)CC(CC(=O)OCCn1ccc(=O)c(O)c1C)O2` (stereo not drawn) [Example 9, 2-(1,4-Dihydro-3-hydroxy-2-methyl-4-oxo-1-pyridinyl)ethyl 2,3-dihydro-5-hydroxy-4,6,7-trimethylbenzofuran-2-acetate], in experiment [1], the EC50 is 1.6 µM. This molecule also came in with an IC50 in experiment [2] of 0.4 µM.
